{"source": "paper PMC9330353", "about": "(Journal of Fungi, 2022)", "key": {"Pdr5p [1]": {"target": "T1, Pdr5p (Saccharomyces cerevisiae, UniProt P33302)", "T1 construct": "AD/124567 cells in the exponential growth phase were harvested by centrifugation; endogenous in cells; host or cells: S. cerevisiae strain AD/124567 (PDR1-3; other MDR ABC transporter genes deleted)", "T1 sequence (P33302 whole entry)": "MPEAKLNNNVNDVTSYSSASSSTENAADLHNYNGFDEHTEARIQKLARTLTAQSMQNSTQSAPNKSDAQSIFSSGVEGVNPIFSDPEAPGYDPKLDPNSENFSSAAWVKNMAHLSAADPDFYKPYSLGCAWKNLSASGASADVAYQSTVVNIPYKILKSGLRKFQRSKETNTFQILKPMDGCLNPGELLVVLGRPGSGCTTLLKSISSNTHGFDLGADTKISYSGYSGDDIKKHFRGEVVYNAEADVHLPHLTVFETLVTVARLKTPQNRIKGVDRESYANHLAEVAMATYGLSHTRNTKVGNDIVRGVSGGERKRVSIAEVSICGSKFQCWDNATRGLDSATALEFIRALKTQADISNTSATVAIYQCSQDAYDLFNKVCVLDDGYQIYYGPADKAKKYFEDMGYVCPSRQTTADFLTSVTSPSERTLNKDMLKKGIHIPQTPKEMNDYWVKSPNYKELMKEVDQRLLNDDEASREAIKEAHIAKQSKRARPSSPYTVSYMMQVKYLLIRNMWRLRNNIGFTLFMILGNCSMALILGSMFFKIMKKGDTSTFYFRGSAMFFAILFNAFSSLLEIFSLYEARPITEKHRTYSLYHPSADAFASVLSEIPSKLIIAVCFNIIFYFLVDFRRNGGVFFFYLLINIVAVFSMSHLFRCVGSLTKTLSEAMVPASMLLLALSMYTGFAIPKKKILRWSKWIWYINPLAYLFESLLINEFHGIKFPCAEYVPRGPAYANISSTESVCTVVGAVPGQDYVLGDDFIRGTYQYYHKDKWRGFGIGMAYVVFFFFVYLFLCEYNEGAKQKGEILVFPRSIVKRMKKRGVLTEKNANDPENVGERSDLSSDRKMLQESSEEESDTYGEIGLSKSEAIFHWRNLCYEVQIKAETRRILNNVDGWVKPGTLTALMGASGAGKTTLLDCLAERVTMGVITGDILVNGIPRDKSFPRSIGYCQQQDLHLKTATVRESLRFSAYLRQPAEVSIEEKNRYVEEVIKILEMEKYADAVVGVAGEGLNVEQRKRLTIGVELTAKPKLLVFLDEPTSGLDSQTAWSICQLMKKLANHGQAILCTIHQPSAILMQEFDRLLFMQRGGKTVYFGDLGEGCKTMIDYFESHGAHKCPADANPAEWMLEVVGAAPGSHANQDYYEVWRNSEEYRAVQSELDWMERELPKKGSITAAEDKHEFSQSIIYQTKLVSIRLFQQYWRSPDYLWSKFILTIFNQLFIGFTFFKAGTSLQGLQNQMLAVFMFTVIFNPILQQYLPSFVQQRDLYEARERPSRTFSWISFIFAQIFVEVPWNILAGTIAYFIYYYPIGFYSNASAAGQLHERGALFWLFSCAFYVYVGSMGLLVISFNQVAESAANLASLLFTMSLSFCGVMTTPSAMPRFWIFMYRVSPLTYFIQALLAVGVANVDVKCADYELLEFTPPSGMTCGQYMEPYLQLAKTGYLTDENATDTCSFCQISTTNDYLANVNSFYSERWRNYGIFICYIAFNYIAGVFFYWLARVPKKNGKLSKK", "settings": "at 100 μg/mL; cited from earlier work"}, "strain AD/124567 [2]": {"test_system": "strain AD/124567", "assay": "Disk diffusion chemosensitization assay", "type": "cell-based, Saccharomyces cerevisiae", "settings": "strain AD/124567, medium with 150 µg/mL fluconazole, 50 μg compound per disk, 48 h", "method": "To evaluate the ability of the compounds in reversing the MDR phenotype of strain AD/124567, a chemosensitization assay was performed, with slight modifications. Briefly, YPD medium containing 150 µg/mL fluconazole was prepared with 1.5% agarose, and a cell suspension from AD/124567 was incorporated into molten medium (45 °C), reaching a final concentration of 2.4 × 10^6 yeasts/mL. Subsequently, 50 μg of each compound was applied to 6-milimeter Whatman 3MM® blotting paper disks (Sigma-Aldrich®, St. Louis, MO, USA), dried at 30 °C for 30 min, and placed on the solidified medium surface. The plates were incubated at 30 °C for 48 h, photographed, and the inhibition zones were measured. A fluconazole-free medium was also used to evaluate the effects of the compounds alone on yeast growth."}, "strain AD/124567 [3]": {"test_system": "strain AD/124567", "assay": "Checkerboard assay with fluconazole, strain AD/124567", "type": "cell-based, Saccharomyces cerevisiae", "method": "(§1) Culture growth was measured using a microplate reader at 600 nm (Fluostar Optima, BMG Labtech, Offenburg, Germany). Growth inhibition was calculated as described in Section 2.3.\n(§2) FICI ≤ 0.5 points to a synergic interaction, whereas 0.5 < FICI < 4.0 and FICI > 4 indicate indifferent and antagonistic interactions, respectively."}, "[4]": {"test_system": "fluconazole-resistant Candida albicans strain 95-142", "assay": "Checkerboard assay with fluconazole, strain 95-142", "type": "cell-based", "settings": "read-out: Fluconazole MIC a (alone)", "excerpt": "(§3) In this study, two S. cerevisiae mutant strains were used. Strain AD/124567 (genotype: MATα, PDR1-3, ura3, his1, Δyor1::hisG, Δsnq2::hisG, Δpdr10::hisG, Δpdr11::hisG, Δycf1::hisG, Δpdr3::hisG) overexpressed Pdr5p, but the genes of all other ABC transporters related to the MDR phenotype (Yor1p, Snq2p, Pdr10p, Pdr11p, and Ycf1p) were deleted. A second strain, AD/1234567, had all MDR related genes deleted, including PDR5 (genotype: MATα, PDR1-3, ura3, his1, Δyor1::hisG, Δsnq2::hisG, Δpdr5::hisG, Δpdr10::hisG, Δpdr11::hisG, Δycf1::hisG, Δpdr3::hisG). Therefore, this strain was highly sensitive to fluconazole. One fluconazole-resistant Candida albicans strain was also used in this study, namely, 95-142. This strain was isolated from the throat of a patient and identified by CHROMagar^TM and PCR. The isolate overexpressed CaCdr1p and CaCdr2p (the most important MDR transporters of C. albicans), and was kindly provided by Dr. Theodore White (University of Missouri, Kansas City, MO, USA).\nas §1, §2"}, "Pdr5p [5]": {"target": "T1, Pdr5p", "settings": "at 200 μM; cited from earlier work"}, "[6]": {"test_system": "S. cerevisiae strain AD/124567 (overexpresses Pdr5p)", "assay": "Antifungal susceptibility test (microbroth dilution), strain AD/124567", "type": "cell-based, Saccharomyces cerevisiae", "settings": "tested strains AD/1234567 and AD/124567, up to 100 μM", "excerpt": "as §3\nThe antifungal activity of the compounds was evaluated via a microbroth dilution method described by Niimi et al.. […] Culture growth was measured using a microplate reader at 600 nm (Fluostar Optima, BMG Labtech, Offenburg, Germany). […] Growth inhibition was calculated as follows: % Growth inhibition = (Absorbance of growth control − Absorbance of treated sample) × 100/Absorbance of growth control"}, "Pdr5p [7]": {"target": "T1, Pdr5p", "assay": "Rhodamine 6G accumulation/efflux assay", "type": "cell-based", "settings": "strain AD/124567 in the presence of glucose", "method": "Efflux assays were performed as described by Reis de Sá et al. (2017). Briefly, AD/124567 cells in the exponential growth phase were harvested by centrifugation at 5000 rpm at room temperature for 5 min, and then washed twice with phosphate-buffered saline (PBS) (0.43 g of KH2PO4; 7.2 g of NaCl; 1.85 g of Na2HPO4; pH 7.2; 990 mL of distilled water). Cells were then resuspended in 10 mL of PBS and starved for 2 h at 4 °C. Subsequently, 10^7 cells/mL were incubated for 30 min at 30 °C with 15 μM R6G. After incubation, cells were washed twice with PBS and further incubated in the presence of the compounds, DMSO, and FK-506 (a classical inhibitor of ABC transporters) for 60 min at 30 °C. […] The supernatants were transferred to the wells of a 96-well polystyrene plate, and fluorescence was measured with a plate reader (Fluostar Optima, BMG Labtech, Offenburg, Germany) at 485 nm (excitation) and 538 nm (emission). To evaluate R6G efflux, fluorescence emitted by the dye in the extracellular milieu was measured. Thus, the fluorescence was directly related to extracellular R6G concentration, and then to Pdr5p activity. […] R6G efflux was calculated as follows: (2) % efflux = Fluorescence of treated sample × 100/Fluorescence of AD/124567 with glucose […]"}}, "note": "Entries after “also recorded” stand apart in the source; their conditions may differ.", "data": [{"smiles": "CC1(C)CCC2=C(O1)c1ccccc1C(=O)C2=O", "note": "[Beta-lapachone]", "values": [{"measurement": "Inhibition of Pdr5p activity", "setting": "Pdr5p [1]", "result": 79.4, "unit": "%"}]}, {"smiles": "C=CC[C@@H]1/C=C(\\C)C[C@H](C)C[C@H](OC)[C@H]2O[C@@](O)(C(=O)C(=O)N3CCCC[C@H]3C(=O)O[C@H](/C(C)=C/[C@@H]3CC[C@@H](O)[C@H](OC)C3)[C@H](C)[C@@H](O)CC1=O)[C@H](C)C[C@@H]2OC", "note": "[FK-506]", "values": [{"measurement": "Inhibition zone", "setting": "strain AD/124567 [2]", "result": 18, "unit": "mm"}]}, {"smiles": "OC(Cn1cncn1)(Cn1cncn1)c1ccc(F)cc1F", "note": "[Fluconazole]", "values": [{"measurement": "MIC", "setting": "strain AD/124567 [3]; Saccharomyces cerevisiae, strain AD/124567, 80% growth inhibition, read-out: Fluconazole MIC a (alone)", "result": 480, "unit": "µg/mL"}, {"measurement": "MIC", "setting": "[4]", "result": 62.5, "unit": "µg/mL"}]}, {"smiles": "Nc1ncc(/C=C/CNC(=O)c2cc(Br)c(Br)[nH]2)[nH]1", "note": "[Oroidin]", "values": [{"measurement": "Inhibition of R6G efflux", "setting": "Pdr5p [5]", "result": 60, "unit": "%"}]}, {"smiles": "C[C@H]1O[C@@H](O[C@H]2[C@@H](O)C[C@H](O[C@H]3[C@@H](O)C[C@H](O[C@H]4CC[C@@]5(C)[C@H](CC[C@@H]6[C@@H]5C[C@@H](O)[C@]5(C)[C@@H](C7=CC(=O)OC7)CC[C@]65O)C4)O[C@@H]3C)O[C@@H]2C)C[C@H](O)[C@@H]1O", "note": "[digoxin, Digoxin]", "values": [{"measurement": "Antifungal activity of the compound alone", "setting": "[6]", "result": "neither presented antifungal activity"}, {"measurement": "Interaction with fluconazole (qualitative)", "setting": "strain AD/124567 [3]; S. cerevisiae, agar diffusion assay and checkerboard titration", "result": "indifferent to interaction with fluconazole"}, {"measurement": "Effect on R6G efflux / Pdr5p activity (qualitative)", "setting": "Pdr5p [7]", "result": "unable to inhibit Pdr5p activity; also recorded: did not affect Pdr5p activity"}]}]}
